As to `O=C(O)CCCOc1cccc2cc(C(Cl)=CC=CC(=O)N3CCOCC3)oc12` (stereo in doubt) [Example 147, (2E,4Z)-4-[2-(1-chloro-5-morpholin-4-yl-5-oxo-penta-1,3-dienyl)benzofuran-7-yloxy]butyric acid], the melting point is 152.5 to 154.8 °C.

`CCN(CC)C(=O)/C=C(\C)c1ccc(OC(c2ccccc2)c2ccccc2)c2oc(C(C)=O)cc12` [Example 4, (E)-3-(2-acetyl-7-benzhydryloxybenzofuran-4-yl)-N,N-diethyl-2-butenamide] came in with a melting point of 163.3 to 165.2 °C.

In turn, `CC(=O)c1cc2c(/C(C)=C/C(=O)N3CCN(Cc4ccccc4)CC3)ccc(OC(c3ccccc3)c3ccccc3)c2o1` [Example 12, (E)-3-(2-acetyl-7-benzhydryloxybenzofuran-4-yl)-1-(4-benzylpiperazin-1-yl)-2-buten-1-one] displayed a melting point of 132.1 to 136.5 °C. `CCOC(=O)c1oc2ccc(/C(C)=C/C(=O)N(CC)CC)cc2c1N` [Example 15, Ethyl (E)-3-amino-5-(2-diethylcarbamoyl-1-methylvinyl)benzofurane-2-carboxylate] yielded a melting point of 159.5 to 162 °C. Under `CCN(CC)C(=O)/C=C(\C)c1ccc2oc(C(=O)c3ccc(C#N)cc3)c(N)c2c1` [Example 22, (E)-3-[3-amino-2-(4-cyanobenzoyl)benzofuran-5-yl]-N,N-diethyl-2-butenamide] stands 216.4 to 218.4 °C; under `CC(=O)c1oc2ccc(/C(C)=C/C(=O)N3CCOCC3)cc2c1N` [Example 23, (E)-3-(2-acetyl-3-aminobenzofuran-5-yl)-1-morpholino-2-buten-1-one], 256.4 to 262.1 °C.

In the case of `COc1ccc(CCNC(=O)/C=C(\C)c2ccc3oc(C(=O)c4ccccc4)cc3c2)cc1OC` [Example 24, (E)-3-(2-benzoylbenzofuran-5-yl)-N-[2-(3,4-dimethoxyphenyl)ethyl]-2-butenamide], the melting point fell in the range of 126.9 to 129.4 °C. Under `C/C(=C\C(=O)N1CCOCC1)c1ccc2oc(C(=O)c3ccccc3)cc2c1` [Example 25, (E)-3-(2-benzoylbenzofuran-5-yl)-1-morpholino-2-buten-1-one] stands 115.5 to 117 °C. Regarding `COc1ccc(CCNC(=O)/C=C(\C)c2ccc3oc(C(C)=O)cc3c2)cc1OC` [Example 26, (E)-3-(2-acetylbenzofuran-5-yl)-N-[2-(3,4-dimethoxyphenyl)ethyl]-2-butenamide], the melting point lay in the range of 112.7 to 114.3 °C.

The compound `CC(=O)c1cc2cc(/C(C)=C/C(=O)N3CCOCC3)ccc2o1` [Example 27, (E)-3-(2-acetylbenzofuran-5-yl)-1-morpholino-2-buten-1-one] had a melting point of 138.9 to 141.8 °C. Take `CCN(CC)C(=O)/C=C(\C)c1cc2c(Br)cc(Br)c(OCCCC(=O)O)c2o1` [Example 31, (E)-4-[4,6-dibromo-2-(2-diethylcarbamoyl-1-methylvinyl)benzofuran-7-yloxy]butyric acid]: the melting point is 121 to 123 °C. In turn, `COc1cccc(NC(=O)/C=C(\C)c2cc3c(Br)ccc(OCCN(C)C)c3o2)c1` [Example 39, (E)-3-[4-bromo-7-(2-dimethylaminoethoxy)benzofuran-2-yl]-N-(3-methoxyphenyl)-2-butenamide] showed a melting point of 176.4 to 181.5 °C. As for `COc1ccc(NC(=O)/C=C(\C)c2cc3cccc(OC(c4ccccc4)c4ccccc4)c3o2)cc1` [Example 41, (E)-3-(7-benzhydryloxybenzofuran-2-yl)-N-(4-methoxyphenyl)-2-butenamide], the melting point lay in the range of 191.8 to 193.6 °C.

In turn, `COc1ccc(NC(=O)/C=C(/C)c2cc3cccc(OC(c4ccccc4)c4ccccc4)c3o2)cc1OC` [Example 43, (Z)-3-(7-benzhydryloxybenzofuran-2-yl)-N-(3,4-dimethoxyphenyl)-2-butenamide] came in with a melting point of 93.9 to 94.5 °C. The compound `COc1ccc(NC(=O)/C=C(\C)c2cc3cccc(OC(c4ccccc4)c4ccccc4)c3o2)cc1OC` [Example 45, (E)-3-(7-benzhydryloxybenzofuran-2-yl)-N-(3,4-dimethoxyphenyl)-2-butenamide] displayed a melting point of 93.9 to 94.5 °C. Under `COc1ccc(CCNC(=O)/C=C(\C)c2cc3cccc(OC(c4ccccc4)c4ccccc4)c3o2)cc1OC` [Example 47, (E)-3-(7-benzhydryloxybenzofuran-2-yl)-N-[2-(3,4-dimethoxyphenyl)ethyl]-2-butenamide] stands 70.8 to 73.5 °C; under `COc1ccc(NC(=O)/C=C/C=C(\Cl)c2cc3cccc(OCCCCl)c3o2)cc1OC` [Example 53, (2E,4Z)-5-chloro-5-[7-(3-chloropropoxy)benzofuran-2-yl]penta-2,4-dienoic acid (3,4-dimethoxyphenyl)amide], 167.5 to 169 °C; under `COc1ccc(CCNC(=O)/C=C/C=C(\Cl)c2cc3cccc(OCCCCl)c3o2)cc1OC` [Example 60, (2E,4Z)-5-chloro-5-[7-(3-chloropropoxy)benzofuran-2-yl]penta-2,4-dienoic acid [2-(3,4-dimethoxyphenyl)ethyl]amide], 149 to 150 °C. In turn, `COc1cccc2cc(/C(Cl)=C/C=C/C#N)oc12` [Example 61, (2E,4Z)-5-chloro-5-(7-methoxybenzofuran-2-yl)penta-2,4-dienenitrile] had a melting point of 98.9 to 101.2 °C. In turn, `CCOC(=O)/C=C/C=C(\Cl)c1cc2cccc(OC)c2o1` [Example 62, Ethyl (2E,4Z)-5-chloro-5-(7-methoxybenzofuran-2-yl)penta-2,4-dienoate] gave a melting point of 113.9 to 117.6 °C. `CCOC(=O)C(CSCc1ccccc1)NC(=O)/C=C/C=C(\Cl)c1cc2cccc(OCCCCl)c2o1` (stereo not drawn) [Example 63, Ethyl (2E,4Z)-3-benzylsulfanyl-2-{5-chloro-5-[7-(3-chloropropoxy)benzofuran-2-yl]penta-2,4-dienoylamino}propionate] had a melting point of 116.5 to 118.3 °C.

For the compound `CCOC(=O)C(CSCc1ccccc1)NC(=O)/C=C/C=C(\Cl)c1cc2cc(Br)ccc2o1` (stereo not drawn) [Example 64, Ethyl (2E,4Z)-3-benzylsulfanyl-2-[5-(5-bromobenzofuran-2-yl)-5-chloropenta-2,4-dienoylamino]propionate], the melting point fell in the range of 133.7 to 135.4 °C. The compound `CC(=O)c1oc2ccc(Br)cc2c1NC(=O)c1cnoc1C` [Example 65, N-(2-acetyl-5-bromobenzofuran-3-yl)-5-methylisoxazole-4-carboxamide] yielded a melting point of 206 to 208 °C. For `CC(=O)c1oc2ccccc2c1NC(=O)/C(C#N)=C(/C)O` [Example 66, (Z)-N-(2-acetylbenzofuran-3-yl)-2-cyano-3-hydroxy-2-butenamide] the value was 206.1 to 208.1 °C; for `CCOC(=O)c1oc2ccc(Br)cc2c1NC(=O)c1cnoc1C` [Example 67, Ethyl 5-bromo-3-[(5-methylisoxazole-4-carbonyl)amino]benzofurane-2-carboxylate], 170 to 172.8 °C. For the compound `CCOC(=O)c1oc2ccccc2c1NC(=O)c1cnoc1C` [Example 68, Ethyl 3-[(5-methylisoxazole-4-carbonyl)amino]benzofurane-2-carboxylate], the melting point lay within 166 to 168.2 °C. Under `CC(=O)c1oc2ccccc2c1NC(=O)c1cnoc1C` [Example 69, N-(2-acetylbenzofuran-3-yl)-5-methylisoxazole-4-carboxamide] stands 174 to 177 °C.

Source of the values: patent publication US7638540B2, “Benzofuran compound and medicinal composition containing the same” (The New Industry Research Organization, priority 2003, dated 2009).
